# Biological target: RET-V804M (Homo sapiens, UniProt P07949, V804M)
# Test: RET inhibition experiment (HTRF KinEASE-TK kit), mutant RET-V804M
# Format: biochemical
# Details: 10 nM (Table 2); read-out: Inhibition rate on RET-V804M
# Protocol: Experimental method: According to the instructions of the HTRF KinEASE-TK kit (Cisbio), the compounds of the present disclosure were tested for their inhibitory effects on the activity of wild-type RET enzyme, mutant RET enzyme (RET-V804M, RET-V804L, and RET-M918T) and fusion-type RET enzyme (RET-CCDCl6). After pre-incubation of different RET enzymes and different concentrations of the test compounds at room temperature for 30 min, a substrate and adenosine triphosphate (ATP) were added to initiate the reaction. After incubation at room temperature for 40 min, TK antibody-cryptate and streptavidin-XL665 were added, and the test was performed after incubation at room temperature for 45 min. With the solvent group (DMSO) as the negative control and the buffer group (without RET enzyme) as the blank control, the relative inhibitory activity percentages (i.e., inhibition rates) of different concentrations of the compounds were computed as per the following formula:
# (§1) Relative inhibitory activity percentage=1−(compound group of different concentrations−blank control)/(negative control−blank control)*100%
# (§2) The relative inhibitory activity percentages of different concentrations of the compounds were plotted with respect to the compound concentrations, and the curve was fitted according to a four-parameter model to compute the IC50 value as per the following formula:
# (§3) y=min+(max−min)/(1+(x/IC50)^(−Hillslope))
# (§4) where y is the relative inhibitory activity percentage, max is the maximum value of the fitted curve, min is the minimum value of the fitted curve, x is the logarithmic concentration of the compound, and Hillslope is the slope of the curve.
# RET-V804M, sequence (P07949 29-1114 V804M): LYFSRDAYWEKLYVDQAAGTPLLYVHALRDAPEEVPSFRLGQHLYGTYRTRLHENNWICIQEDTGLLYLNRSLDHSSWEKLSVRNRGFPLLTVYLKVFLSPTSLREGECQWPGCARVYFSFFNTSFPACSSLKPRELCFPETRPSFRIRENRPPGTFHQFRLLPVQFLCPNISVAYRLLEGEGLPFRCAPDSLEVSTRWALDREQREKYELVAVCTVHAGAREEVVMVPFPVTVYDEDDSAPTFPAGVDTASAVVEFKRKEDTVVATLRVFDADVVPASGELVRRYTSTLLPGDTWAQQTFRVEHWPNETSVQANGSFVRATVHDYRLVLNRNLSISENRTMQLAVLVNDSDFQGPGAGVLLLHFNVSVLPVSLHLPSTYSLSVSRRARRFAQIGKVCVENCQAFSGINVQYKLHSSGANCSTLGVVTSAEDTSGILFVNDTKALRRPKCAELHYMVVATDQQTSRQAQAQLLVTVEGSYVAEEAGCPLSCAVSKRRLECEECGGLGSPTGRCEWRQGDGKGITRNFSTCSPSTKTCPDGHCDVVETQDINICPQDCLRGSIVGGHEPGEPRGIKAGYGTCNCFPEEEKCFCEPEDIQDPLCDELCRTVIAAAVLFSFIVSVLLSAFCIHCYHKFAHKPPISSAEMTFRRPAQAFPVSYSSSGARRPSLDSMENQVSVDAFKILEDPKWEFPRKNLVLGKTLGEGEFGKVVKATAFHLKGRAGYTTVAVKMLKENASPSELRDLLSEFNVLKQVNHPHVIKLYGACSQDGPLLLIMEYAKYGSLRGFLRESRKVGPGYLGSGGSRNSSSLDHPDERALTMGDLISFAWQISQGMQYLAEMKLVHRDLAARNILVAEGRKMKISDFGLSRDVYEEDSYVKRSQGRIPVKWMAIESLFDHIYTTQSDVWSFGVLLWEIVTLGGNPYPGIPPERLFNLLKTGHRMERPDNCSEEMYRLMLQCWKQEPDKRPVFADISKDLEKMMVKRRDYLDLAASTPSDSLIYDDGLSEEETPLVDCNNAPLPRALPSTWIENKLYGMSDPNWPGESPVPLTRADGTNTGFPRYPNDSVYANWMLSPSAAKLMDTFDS
row,SMILES,inhibition at 0.01 µM [%]
1,"Cc1cc(Nc2cc(C)[nH]n2)nc(-c2ccc(N3CC4CC(C3)N4Cc3ccc(-n4cc(F)cn4)cc3)nc2)n1 [Compound 91, 2-(6-(6-(4-(4-fluoro-1H-pyrazol-1-yl)benzyl)-3,6-diazabicyclo[3.1.1]heptan-3-yl)pyridin-3-yl)-6-methyl-N-(5-methyl-1H-pyrazol-3-yl)pyrimidin-4-amine]",70
2,"Cc1cc(Nc2cc(C)[nH]n2)nc(-c2ccc(N3CC4CC(C3)N4Cc3ccc(-n4ncc(Cl)c4C)nc3)nc2)n1 [Compound 28′, 2-(6-(6-((6-(4-chloro-5-methyl-1H-pyrazol-1-yl)pyridin-3-yl)methyl)-3,6-diazabicyclo[3.1.1]heptan-3-yl)pyridin-3-yl)-6-methyl-N-(5-methyl-1H-pyrazol-3-yl)pyrimidin-4-amine]",34

# Same assay, conditions: 100 nM (Table 2); read-out: Inhibition rate on RET-V804M
row,SMILES,inhibition at 0.1 µM [%]
1,"Cc1cc(Nc2cc(C)[nH]n2)nc(-c2ccc(N3CC4CC(C3)N4Cc3ccc(C(F)(F)F)nc3)nc2)n1 [Compound 118, 6-methyl-N-(5-methyl-1H-pyrazol-3-yl)-2-(6-(6-((6-(trifluoromethyl)pyridin-3-yl)methyl)-3,6-diazabicyclo[3.1.1]heptan-3-yl)pyridin-3-yl)pyrimidin-4-amine]",74
2,"Cc1cc(Nc2cc(C)[nH]n2)nc(-c2ccc(N3CC4CC(C3)N4Cc3cncc(F)c3)nc2)n1 [Compound 98, 2-(6-(6-((5-fluoropyridin-3-yl)methyl)-3,6-diazabicyclo[3.1.1]heptan-3-yl)pyridin-3-yl)-6-methyl-N-(5-methyl-1H-pyrazol-3-yl)pyrimidin-4-amine]",63
3,"COc1ccc(CN2CCN(c3ccc(-c4nc(C)cc(Nc5cc(C)[nH]n5)n4)cn3)CC2)cn1 [Compound 49, 2-(6-(4-((6-methoxypyridin-3-yl)methyl)piperazin-1-yl)pyridin-3-yl)-6-methyl-N-(5-methyl-1H-pyrazol-3-yl)pyrimidin-4-amine]",75
4,"Cc1cc(Nc2cc(C)[nH]n2)nc(-c2ccc(N3CC4CC(C3)N4Cc3ccc(C#N)nc3)nc2)n1 [Compound 117, 5-((3-(5-(4-methyl-6-((5-methyl-1H-pyrazol-3-yl)-amino)pyrimidin-2-yl)pyridin-2-yl)-3,6-diazabicyclo[3.1.1]heptan-6-yl)methyl)-2-cyanopyridine]",76
5,"COc1cncc(CN2C3CC2CN(c2ccc(-c4nc(C)cc(Nc5cc(C)[nH]n5)n4)cn2)C3)c1 [Compound 18, 2-(6-(6-((5-methoxypyridin-3-yl)methyl)-3,6-diazabicyclo[3.1.1]heptan-3-yl)pyridin-3-yl)-6-methyl-N-(5-methyl-1H-pyrazol-3-yl)pyrimidin-4-amine]",70
6,"COc1ccc(CN2C3CC2CN(c2ccc(-c4nc(C)cc(Nc5cc(C)[nH]n5)n4)cn2)C3)nc1 [Compound 67, 2-(6-(6-((5-methoxypyridin-2-yl)methyl)-3,6-diazabicyclo[3.1.1]heptan-3-yl)pyridin-3-yl)-6-methyl-N-(5-methyl-1H-pyrazol-3-yl)pyrimidin-4-amine]",82
7,"COc1ccc(C(=O)N2CCN(c3ccc(-c4nc(C)cc(Nc5cc(C)[nH]n5)n4)cn3)CC2)cn1 [Compound 110, (6-methoxypyridin-3-yl)(4-(5-(4-methyl-6-((5-methyl-1H-pyrazol-3-yl)amino)pyrimidin-2-yl)pyridin-2-yl)piperazin-1-yl)methanone]",62
8,"Cc1cc(Nc2cc(C)[nH]n2)nc(-c2ccc(N3CC4CC(C3)N4Cc3cnccc3C)nc2)n1 [Compound 21, 6-methyl-N-(5-methyl-1H-pyrazol-3-yl)-2-(6-(6-((4-methylpyridin-3-yl)methyl)-3,6-diazabicyclo[3.1.1]heptan-3-yl)pyridin-3-yl)pyrimidin-4-amine]",49
9,"Cc1cc(Nc2cc(C)[nH]n2)nc(-c2ccc(N3CC4CC(C3)N4Cc3ccc(-n4cc(CF)cn4)nc3)nc2)n1 [Compound 126, 2-(6-(6-((6-(4-fluoromethyl-1H-pyrazol-1-yl)pyridin-3-yl)methyl)-3,6-diazabicyclo[3.1.1]heptan-3-yl)pyridin-3-yl)-6-methyl-N-(5-methyl-1H-pyrazol-3-yl)pyrimidin-4-amine]",82
10,"Cc1cc(Nc2cc(C)[nH]n2)nc(-c2ccc(N3CC4CC(C3)N4Cc3ccc(-n4cc(CO)cn4)nc3)nc2)n1 [Compound 127, (1-(5-((3-(5-(4-methyl-6-((5-methyl-1H-pyrazol-3-yl)amino)pyrimidin-2-yl)pyridin-2-yl)-3,6-diazabicyclo[3.1.1]heptan-6-yl)methyl)pyridin-2-yl)-1H-pyrazol-4-yl)methanol]",84
11,"Cc1ccc(CN2C3CC2CN(c2ccc(-c4nc(C)cc(Nc5cc(C)[nH]n5)n4)cn2)C3)cn1 [Compound 16, 6-methyl-N-(5-methyl-1H-pyrazol-3-yl)-2-(6-(6-((6-methylpyridin-3-yl)methyl)-3,6-diazabicyclo[3.1.1]heptan-3-yl)pyridin-3-yl)pyrimidin-4-amine]",92
12,"COc1ccc(CC(=O)N2CCN(c3ccc(-c4nc(C)cc(Nc5cc(C)[nH]n5)n4)cn3)CC2)cn1 [Compound 111, 2-(6-methoxypyridin-3-yl)-1-(4-(5-(4-methyl-6-((5-methyl-1H-pyrazol-3-yl)amino)pyrimidin-2-yl)pyridin-2-yl)piperazin-1-yl)ethan-1-one]",46

# Same assay, conditions: read-out: Inhibition rate on RET-V804M
row,SMILES,inhibition at 0.1 µM [%]
1,"Cc1cc(Nc2cc(C)[nH]n2)nc(-c2ccc(N3CC4CC(C3)N4Cc3ccc(C(F)(F)F)cc3)nc2)n1 [Compound 84, 6-methyl-N-(5-methyl-1H-pyrazol-3-yl)-2-(6-(6-(4-(trifluoromethyl)benzyl)-3,6-diazabicyclo[3.1.1]heptan-3-yl)pyridin-3-yl)pyrimidin-4-amine]",72
2,"Cc1cc(Nc2cc(C)[nH]n2)nc(-c2ccc(N3CC4CC(C3)N4Cc3ccc(C#N)cc3)nc2)n1 [Compound 85, 4-((3-(5-(4-methyl-6-((5-methyl-1H-pyrazol-3-yl)-amino)pyrimidin-2-yl)pyridin-2-yl)-3,6-diazabicyclo[3.1.1]heptan-6-yl)methyl)benzonitrile]",77
3,"COc1ccc(C(C)N2C3CC2CN(c2ccc(-c4nc(C)cc(Nc5cc(C)[nH]n5)n4)cn2)C3)cc1 (centres unmarked) [Compound 50, 2-(6-(6-(1-(4-methoxyphenyl)ethyl)-3,6-diazabicyclo[3.1.1]heptan-3-yl)pyridin-3-yl)-6-methyl-N-(5-methyl-1H-pyrazol-3-yl)pyrimidin-4-amine]",50

# Biological target: VEGFR2 (Homo sapiens, UniProt P35968)
# Sequence (P35968 20-1356, species assumed): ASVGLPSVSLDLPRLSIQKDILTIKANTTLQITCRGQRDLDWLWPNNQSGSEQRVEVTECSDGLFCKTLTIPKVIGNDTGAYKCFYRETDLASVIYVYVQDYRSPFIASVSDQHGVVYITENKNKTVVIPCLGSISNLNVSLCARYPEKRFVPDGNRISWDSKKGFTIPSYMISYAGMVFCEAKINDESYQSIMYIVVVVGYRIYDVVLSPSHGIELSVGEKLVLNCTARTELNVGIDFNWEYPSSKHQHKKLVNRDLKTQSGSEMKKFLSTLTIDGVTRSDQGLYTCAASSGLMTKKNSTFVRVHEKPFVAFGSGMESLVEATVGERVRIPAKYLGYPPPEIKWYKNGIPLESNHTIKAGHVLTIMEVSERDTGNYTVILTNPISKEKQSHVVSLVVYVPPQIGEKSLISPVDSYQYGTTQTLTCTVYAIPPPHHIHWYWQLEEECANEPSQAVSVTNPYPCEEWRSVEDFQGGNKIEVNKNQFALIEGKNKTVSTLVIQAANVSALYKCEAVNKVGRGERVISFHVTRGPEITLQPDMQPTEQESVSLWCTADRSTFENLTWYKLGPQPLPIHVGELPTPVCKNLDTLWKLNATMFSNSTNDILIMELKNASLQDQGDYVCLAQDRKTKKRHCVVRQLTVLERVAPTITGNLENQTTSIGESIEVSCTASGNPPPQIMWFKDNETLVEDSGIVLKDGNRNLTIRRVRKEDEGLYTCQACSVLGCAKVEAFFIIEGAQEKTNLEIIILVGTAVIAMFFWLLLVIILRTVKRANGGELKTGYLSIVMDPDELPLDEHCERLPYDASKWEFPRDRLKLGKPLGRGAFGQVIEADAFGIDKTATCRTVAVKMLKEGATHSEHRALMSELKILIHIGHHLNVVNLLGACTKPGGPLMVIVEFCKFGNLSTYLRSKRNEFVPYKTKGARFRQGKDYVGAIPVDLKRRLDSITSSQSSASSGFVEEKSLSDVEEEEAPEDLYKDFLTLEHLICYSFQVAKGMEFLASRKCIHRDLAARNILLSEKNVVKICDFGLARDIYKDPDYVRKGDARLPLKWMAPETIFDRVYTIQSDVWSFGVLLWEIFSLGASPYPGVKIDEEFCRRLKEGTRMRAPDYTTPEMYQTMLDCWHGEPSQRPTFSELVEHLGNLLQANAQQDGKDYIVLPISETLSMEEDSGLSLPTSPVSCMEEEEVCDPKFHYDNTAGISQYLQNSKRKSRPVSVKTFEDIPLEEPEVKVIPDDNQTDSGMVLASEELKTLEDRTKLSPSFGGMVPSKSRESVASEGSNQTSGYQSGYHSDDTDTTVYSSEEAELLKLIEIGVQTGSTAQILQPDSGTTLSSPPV
# Test: VEGFR2 inhibition experiment (HTRF KinEASE-TK kit)
# Format: biochemical
# Details: 100 nM; read-out: Inhibition rate on VEGFR2
# Protocol: Experimental method: According to the instructions of the HTRF KinEASE-TK kit (Cisbio), the compounds of the present disclosure were tested for their inhibitory effects on the VEGFR2 enzyme activity. After pre-incubation of the VEGFR2 enzyme and different concentrations of test compounds at room temperature for 30 min, a substrate and adenosine triphosphate (ATP) were added to initiate the reaction. After incubation at room temperature for 40 min, TK antibody-cryptate and streptavidin-XL665 were added, and the test was performed after incubation at room temperature for 45 min. With the solvent group (DMSO) as the negative control and the buffer group (without VEGFR2 enzyme) as the blank control, the relative inhibitory activity percentages (i.e., inhibition rates) of different concentrations of the compounds were computed as per the following formula:
# as §1, §2, §3, §4
row,SMILES,inhibition at 0.1 µM [%]
1,"Cc1cc(Nc2cc(C)[nH]n2)nc(-c2ccc(N3CC4CC(C3)N4Cc3ccc(-n4cc(F)cn4)cc3)nc2)n1 [Compound 91, 2-(6-(6-(4-(4-fluoro-1H-pyrazol-1-yl)benzyl)-3,6-diazabicyclo[3.1.1]heptan-3-yl)pyridin-3-yl)-6-methyl-N-(5-methyl-1H-pyrazol-3-yl)pyrimidin-4-amine]",26
2,"Cc1cc(Nc2cc(C)[nH]n2)nc(-c2ccc(N3CC4CC(C3)N4C(C)c3ccc(-n4cc(F)cn4)nc3)nc2)n1 (centres unmarked) [Compound 52, 2-(6-(6-(1-(6-(4-fluoro-1H-pyrazol-1-yl)pyridin-3-yl)ethyl)-3,6-diazabicyclo[3.1.1]heptan-3-yl)pyridin-3-yl)-6-methyl-N-(5-methyl-1H-pyrazol-3-yl)pyrimidin-4-amine]",-5

# Same assay, conditions: 300 nM; read-out: Inhibition rate on VEGFR2
row,SMILES,inhibition at 0.3 µM [%]
1,"Cc1cc(Nc2cc(C)[nH]n2)nc(-c2ccc(N3CC4CC(C3)N4C(C)c3ccc(-n4cccn4)nc3)nc2)n1 (centres unmarked) [Compound 125, 2-(6-(6-(1-(6-(1H-pyrazol-1-yl)pyridin-3-yl)ethyl)-3,6-diazabicyclo[3.1.1]heptan-3-yl)pyridin-3-yl)-6-methyl-N-(5-methyl-1H-pyrazol-3-yl)pyrimidin-4-amine]",44

# From patent publication US20220144847A1, “HETEROCYCLIC COMPOUND, PHARMACEUTICAL COMPOSITION COMPRISING SAME, PREPARATION METHOD THEREFOR, AND USE THEREOF” (Sichuan Kelun-Biotech Biopharmaceutical Co., Ltd., priority 2019, published 2022)
